Results from patent US7235534B2, “Antisense strategy to modulate estrogen receptor response (ER α and/or ER β )” (Institut de Cardiologie de Montreal, priority 2001, dated 2007).

Tests used:
[1] = test system: Porcine smooth muscle cells (PSMC); experiment: Mitogenic assay on PSMC (cell count); assay type: cell-based; conditions: for inhibition of PSMC proliferation mediated by FBS: 17βE 10^−7M, 72 h
Procedure: (§1) Confluent PAEC and PSMC were rinsed with DMEM and trypsinized. Cells were resuspended in 10 ml of DMEM, 5% FBS, and antibiotics, and a cell count was obtained with a Coulter Counter Z1 (Coulter Electronics, Luton, UK). PAEC and PSMC were seeded at 1×10^4 cells/well of 24-well tissue culture plates (Becton-Dickinson, Rutherford, N.J., U.S.A.) stimulated for 24 h in DMEM, 5% FBS, and antibiotics, and starved for 48 h in DMEM, 0.1% FBS, and antibiotics. […] After trypsinization, cell number was determined by using a Coulter counter.
(§2) Confluent PAEC and PSMC were rinsed with DMEM and trypsinized. Cells were resuspended in 10 mL of DMEM, 5% FBS, and antibiotics, and a cell count was obtained. PAEC and PSMC were initially seeded at 1×10^4cells/well of 24-well tissue culture plates stimulated for 24 hours in DMEM, 5% FBS, and antibiotics with or without antisense oligomers (10^−6 mol/L), and starved for 48 hours in DMEM, 0.1% FBS, and antibiotics with or without antisense oligomers (10^−6 mol/L daily) for G0 synchronization. Initial cell number for growth was determined using a Coulter counter. The cells were stimulated for 72 hours in DMEM, 1% FBS, antibiotics with or without antisense oligomers (10^−6 mol/L daily) and with or without of 17βE (Sigma). After trypsinization, cell number was determined by using a Coulter counter.

[2] = test system: p38 MAPK; experiment: Western blot of p38 MAPK phosphorylation in PSMC; assay type: cell-based, porcine; conditions: for reversal of the effect of 17βE on p38 MAPK induced by PDGF-BB: antagonist 10^−7M
Procedure: Confluent PAEC and PSMC were starved for 7 hours in DMEM and antibiotics. Culture medium was removed, and cells were rinsed twice with ice-cold DMEM. PSMC were incubated on ice in DMEM with or without 17βE (10^−8M) for 30 min, incubated at 37° C. for 5, 10, 15 and 30 min, then brought back on ice. Cell were then rinsed with cold DMEM, incubated on ice in DMEM, bovine serum albumin (1 mg/ml), PDGF-BB (10 ng/ml) for 30 min, incubated at 37° C. for 5 min, and then brought back on ice. PAEC were incubated on ice in DMEM with or without 17βE (10^−7M) for 30 min, then incubated at 37° C. for 5, 10, 15 and 30 min and brought back on ice. […] Total proteins were prepared by the addition of 500 μl of lysis buffer containing phenylmethylsulfonyl fluoride 1 mM, leupeptin 10 μg/ml, aprotinin 30 μg/ml, and NaVO3 1 mM (Sigma). Plates were incubated at 4° C. for 30 min and scraped, and the protein concentration was determined with a Bio-Rad protein kit (Bio-Rad, Hercules, Calif.). Same protein quantity for each cell type and condition were dissolved in Laemmli's buffer, boiled for 5 min in reducing conditions, separated by a 10% gradient SDS-PAGE (Protean II kit; Bio-Rad), and transblotted onto a 0.45-μm polyvinylidene difluoride membranes (Millipore Corp., Bedford, Mass.). The membranes were blocked in 5% Blotto-TTBS (5% nonfat dry milk; Bio-Rad), 0.05% Tween 20, 0.15 M NaCl, 25 mM Tris-HCl, pH 7.5) for 1 h at room temperature with gentle agitation and incubated overnight at 4° C. in 0.5% Blotto-TTBS with the addition of an anti-phospho p42/44 MAPK or an anti-phospho p38 MAPK rabbit polyclonal antiserums (α-pp42/44; dilution of 1:10 000, and α-pp38; dilution 1:5000, New England BioLabs, Beverly, Mass.). Membranes were washed with TTBS, and incubated at room temperature with an anti-rabbit IgG antibody coupled to horseradish peroxidase (dilution 1:10 000–1:20 000, Santa Cruz Biotechnology, Santa Cruz, Calif.) in 0.5% Blotto-TTBS for 30 min. […] Kaleidoscope molecular weight and SDS-plyacrylamide gel electrophoresis broad range marker proteins (Bio-Rad) were used as standards for SDS-plyacrylamide gel electrophoresis. Digital image densitometry (PDI Bioscience, Aurora, ON) was performed on x-ray film to determine relative percentages of p42/44 and p38 MAPK phosphorylation.
Confluent PAEC and PSMC were preteated with or without antisense sequences as described above for Western Blot analysis. Cells were rinsed twice with ice-cold DMEM. PSMC and PAEC were stimulated with or without 17βE (10^−8 mol/L) as previously described (Geraldes P). Briefly, PSMC were incubated on ice in DMEM with or without 17βE (10^−8 mol/L) for 30 minutes, incubated at 37° C. for 30 minutes, then brought back on ice. Cells were then rinsed with cold DMEM, incubated on ice in DMEM, bovine serum albumin (1 mg/mL), PDGF-BB (10 ng/mL) for 30 minutes, incubated at 37° C. for 5 and 30 minutes, and then brought back on ice. PAEC were incubated on ice in DMEM with or without 17βE (10^−8 mol/L) for 30 minutes, then incubated at 37° C. for 5 and 30 minutes and brought back on ice. Total proteins were prepared-by the addition of 500 μL of lysis buffer, incubated at 4° C. for 30 minutes and scraped to collect the proteins. Same quantity of protein was separated by a 10% gradient SDS-PAGE (Protean II kit; Bio-Rad), and transblotted onto a 0.45-μm polyvinylidene difluoride membranes (Millipore Corp.). The membranes were blocked for 1 hour at room temperature with gentle agitation and incubated overnight at 4° C. in 0.5% Blotto-TTBS with the addition of an antiphospho p42/44 MAPK or an antiphospho p38 MAPK rabbit polyclonal antiserums (α-pp42/44; dilution of 1:10000, and α-pp38; dilution 1:5 000, New England BioLabs, Beverly, Mass.). Membranes were washed with TTBS, and incubated at room temperature with an anti-rabbit IgG antibody coupled to horseradish peroxidase (dilution 1:10 000–1:20 000, Santa Cruz Biotechnology) in 0.5% Blotto-TTBS for 30 minutes. […]

[3] = test system: Porcine aortic endothelial cells (PAEC); experiment: Mitogenic assay on PAEC (cell count); assay type: cell-based; conditions: for inhibition of the 17βE mitogenic activity in PAEC: antagonist 10^−7M pretreatment
Procedure: as §1, §2

CC/C(=C(\c1ccccc1)c1ccc(OCCN(C)C)cc1)c1ccccc1 [Tam, Tamoxifen]
reversal of the anti-mitogenic activity of 17βE on PSMC ([1]; Tam 10^−7M, 17βE 10^−8M, FBS 1%): 75% | reversal of the effect of 17βE on p38 MAPK induced by PDGF-BB ([2]; PDGF-BB 30 min): 51% | inhibition of the 17βE mitogenic activity in PAEC ([3]; 17βE 10^−8M): inhibited completely

C[C@]12CC[C@@H]3c4ccc(O)cc4CC[C@H]3[C@@H]1CC[C@@H]2O [17βE, 17-beta-estradiol]
inhibition of PSMC proliferation mediated by FBS ([1]; FBS 1%): 88% | inhibition of PSMC proliferation mediated by FBS ([1]; FBS 5%): 90% | inhibition of FBS 1% mitogenic activity on PSMC ([1]; 17βE 10^−8M, Example 1): inhibited completely | prevention of PSMC proliferation mediated by FBS 1% ([1]; 17βE 10^−8 mol/L, Example 2): 95% | reversal of PDGF-BB-increased p38 MAPK phosphorylation ([2]; 17βE 10^−8 mol/L 30 minutes, Example 2): reversed | inhibition of PDGF-BB-mediated p38 MAPK phosphorylation ([2]; 17βE (10^−8M) pretreatment 30 minutes, PDGF-BB 30 min): 85% | reduction of PDGF-BB induced phosphorylation of p38 MAPK ([2]; 17βE for 30 min): 85% | change in basal phosphorylation of p38 MAPK ([2]; substance alone, data not shown): did not observe any change | induction of PAEC proliferation over FBS 1% treatment ([3]; 17βE 10^−8M, 72 h, Example 1): 37% | induction of PAEC proliferation over FBS 1% treatment ([3]; 17βE 10^−8 mol/L, Example 2): 123% | concentration of maximum induction of PAEC proliferation ([3]; 17βE 10^−10 to 10^−7M, DMEM 1% FBS, data not shown): 10^−8 M

CC/C(=C(\c1ccc(O)cc1)c1ccc(OCCN(C)C)cc1)c1ccccc1 [4-OHT, 4-OH-Tamoxifen]
reversal of the anti-mitogenic activity of 17βE on PSMC ([1]; 4-OHT 10^−8M and 10^−7M, 17βE 10^−8M, FBS 1%): 81% | reversal of the effect of 17βE on p38 MAPK induced by PDGF-BB ([2]; PDGF-BB 30 min): 53% | inhibition of the 17βE mitogenic activity in PAEC ([3]; 17βE 10^−8M): inhibited completely

O=C(c1ccc(OCN2CCCCC2)cc1)c1c(-c2ccc(O)cc2)sc2cc(O)ccc12 [Ral, Raloxifen]
reversal of the anti-mitogenic activity of 17βE on PSMC ([1]; Rai 10^−1M as printed, 17βE 10^−8M, FBS 1%): 100% | reversal of the effect of 17βE on p38 MAPK induced by PDGF-BB ([2]; PDGF-BB 30 min): 32% | inhibition of the 17βE mitogenic activity in PAEC ([3]; 17βE 10^−8M): inhibited completely
